This is an account of results in patent publication US20040235855A1, “Phospholipase C inhibitors for use in treating inflammatory disorders” (priority 2003, published 2004).

Each structure is given as a SMILES string. Where only a bound is given, the exact number is not on record here.

The target in one assay is T1, human PLC-β2 (Homo sapiens, UniProt Q00722).
T1 construct: made in house; host or cells: Sf9 cells (Spodoptera frugiperda), recombinant baculovirus
The experiment in a line: PLC assay using FlashPlates (96-well, immobilized [3H]PIP2 substrate). The format is biochemical. The note with it: purified recombinant human PLC-β2 or cytosolic human PLC-β2; hydrolysis of [3H]PIP2. The text has this: The hydrolysis of phosphatidylinositol-4,5-bisphosphate (PIP2) by a specific phospholipase C-β2 (PLC-β2) produces two intracellular messengers, diacylglycerol (DAG) and inositol 1,4,5-trisphosphate (IP3), which mediate the activation of protein kinase C and intracellular Ca^2+ release. A conventional organic solvent extraction method is widely used for PLC assays to isolate IP3 from the substrate PIP2. The conventional PLC-β2 assay, however is terminated by addition of acidified organic solvents and subsequent extraction and phase separation. […] Accordingly, a preferred method to test the compounds of the present invention, was developed utilizing a 96-well plate assay for PLC-β2 using immobilized radiolabeled substrate to quantitatively measure the reduction in the substrate level without a need for organic solvent extraction. The automated PLC-β2 assay described herein provides a convenient method for quantitative measurement of phospholipase C activities in a high throughput fashion. Ninety-six well Phospholipid FlashPlates were coated with 0.2 mL of 50 mM Tris/HCl (pH 7.4), 0.01% Ac-BSA and 50,000 cpm of […] (phosphatidylinositol-4,5-bisphosphate) at 4° C. for 72 h. The wells were aspirated and washed twice with PBS. The reactions were conducted directly in the wells in PLC reaction buffer containing 50 mM Tris/HCl (pH 7.2), 2.75 mM EDTA (pH 7.3), 80 mM KCl, 10 mM LiCl, 0.04% DOC and 2 mM CaCl2 in the absence or presence of the purified recombinant human PLC-β2 (prepared as described hereafter) or cytosolic human PLC-β2 from […]. Reduction of radioactivity was monitored by a Packard TopCount instrument (Packard Instrument Company, Conn., USA). […] The cells were grown in Grace's media supplemented with 10% (v/v) fetal bovine serum, 3.3 g/l yeastolate, 3.3 g/l lactalbumin hydrosylate, glutamine (6.4 mM final), 50 μg/ml gentamicin, and 50 μg/ml kanamycin. Suspension of Sf9 cells (1.0×10^6 cells/ml) were infected with 5 pfu/cell of recombinant baculovirus encoding PLC-β2 and incubated at 27° C. for 72 h. The cells were collected by centrifugation (500×g, 7 min, 4° C.) and disrupted by hypotonic lysis buffer containing 20 mM Tris/HCl, pH 7.4, 5 mM MgCl2, 2 mM EGTA, 200 μM PMSF, 200 μM benzamidine and 1 μM pepstatin A. The lysate was sonicated on ice and the nuclei and unbroken cells removed by centrifigation (500×g, 5 min, 4C.). The supernatant was recovered and clarified by centrifugation (34,000 rpm, 60 min, 4C.). The supernatant was used as a crude cytosolic fraction (Paterson, A., Boyer, J. L., Watts, V. J., Morris, A. J., Price, […]. (1995) Concentration of enzyme-dependent activation of PLC β1 and PLC β2 by Gα11 and βγ subunits. Cellular Signalling 7, 709-720). Crude cytosol prepared from Sf9 cells expressing PLC-β2 was purified initially by chromatography on a 10 ml column of Q-Sepharose FF, equilibrated in buffer A (25 mM HEPES, pH 7.2,2 mM DTT, 2 mM EDTA, 2 mM EGTA, 200 μM PMSF, 200 μM benzamidine, 1 μM pepstatin A containing 10 mM NaCl). The column was washed with 20 ml of equilibration buffer and eluted with a 200-ml gradient of 110-410 mM NaCl in buffer A. The fractions containing PLC activity were pooled and diluted with buffer A. The diluted enzyme was applied to a 4 ml column of heparin-SepharoseCL-6B equilibrated in buffer A and the column washed with 70 ml of buffer A. The column was eluted with 80 ml of gradient of 0-1.0 M NaCl in buffer A, the column eluate collected in 3 ml fractions. […]

The next assay deals with PMA-induced ear edema. Nature of the assay: Acute PMA-induced ear edema mouse model. The format is in vivo. The source says: The acute PMA-induced ear edema mouse model was used to test compounds of the present […] (as described in Carlson R P, O'Neill-Davis L, Chang J. and Lewis A J, Modulation of Mouse Ear Edema by Cyclooxygenase and Lipoxygenase Inhibitors and Other Pharmacologic Agents, Agents and Actions, 1985, 17:197-204).

T1 sequence (Q00722 whole entry): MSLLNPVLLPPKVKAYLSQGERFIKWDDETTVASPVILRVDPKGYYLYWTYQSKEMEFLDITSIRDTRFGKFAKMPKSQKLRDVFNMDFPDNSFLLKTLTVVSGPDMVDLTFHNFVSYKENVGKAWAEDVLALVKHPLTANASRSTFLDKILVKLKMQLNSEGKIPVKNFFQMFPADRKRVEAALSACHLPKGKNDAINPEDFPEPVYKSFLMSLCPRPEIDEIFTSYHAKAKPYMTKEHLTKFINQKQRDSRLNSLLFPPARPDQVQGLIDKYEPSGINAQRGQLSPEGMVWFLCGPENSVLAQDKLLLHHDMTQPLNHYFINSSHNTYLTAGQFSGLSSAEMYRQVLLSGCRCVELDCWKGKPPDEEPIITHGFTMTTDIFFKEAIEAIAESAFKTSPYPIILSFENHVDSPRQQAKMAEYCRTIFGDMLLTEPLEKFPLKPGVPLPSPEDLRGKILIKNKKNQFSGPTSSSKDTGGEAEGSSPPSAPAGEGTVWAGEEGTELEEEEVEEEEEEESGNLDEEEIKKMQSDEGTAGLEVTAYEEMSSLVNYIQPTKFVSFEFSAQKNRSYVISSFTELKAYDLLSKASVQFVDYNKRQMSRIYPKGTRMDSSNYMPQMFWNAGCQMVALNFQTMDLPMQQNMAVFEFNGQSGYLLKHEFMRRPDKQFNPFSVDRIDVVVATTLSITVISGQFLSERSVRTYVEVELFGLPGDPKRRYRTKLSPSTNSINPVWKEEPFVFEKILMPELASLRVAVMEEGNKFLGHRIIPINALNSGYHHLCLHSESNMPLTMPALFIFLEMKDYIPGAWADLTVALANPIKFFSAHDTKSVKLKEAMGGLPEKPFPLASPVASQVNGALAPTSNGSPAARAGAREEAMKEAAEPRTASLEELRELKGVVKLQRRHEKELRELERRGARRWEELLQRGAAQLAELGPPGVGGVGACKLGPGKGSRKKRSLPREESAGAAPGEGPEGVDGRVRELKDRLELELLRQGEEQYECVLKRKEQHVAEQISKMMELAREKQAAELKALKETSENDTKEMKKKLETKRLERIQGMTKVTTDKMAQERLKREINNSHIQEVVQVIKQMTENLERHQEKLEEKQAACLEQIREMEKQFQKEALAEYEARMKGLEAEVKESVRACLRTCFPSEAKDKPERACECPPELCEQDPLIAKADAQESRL

As to `NC(=O)c1ccc(N2CCN(C3c4ccccc4-c4ccccc43)CC2)c(NC(=O)Nc2ccccc2)c1` [Cpd 9, 4-[4-(9H-fluoren-9-yl)-1-piperazinyl]-3-[[(phenylamino)carbonyl]amino]-benzamide], the IC50 on human PLC-β2 came to 1.9 µM. The entries for the “% Inhibition” value with PMA-induced ear edema (5 mpk i.v.), in the assay on PMA-induced ear edema (30 mpk i.p.) and in the assay on PMA-induced ear edema (30 mpk p.o.) were 44%, 52% and 44%, respectively.
Regarding `NC(=O)c1ccc(N2CCN(C(c3ccc(F)cc3)c3ccc(F)cc3)CC2)c(NC(=S)NCc2ccccc2)c1` [Cpd 21, 4-[4-[bis(4-fluorophenyl)methyl]-1-piperazinyl]-3-[[[(phenylmethyl)amino]thioxomethyl]amino]-benzamide], the IC50 on human PLC-β2 stood at 2.3 µM. The “% Inhibition” value in the assay on PMA-induced ear edema (5 mpk i.v.) is 56%; in the assay on PMA-induced ear edema (30 mpk i.p.) it was 83%; with PMA-induced ear edema (30 mpk p.o.), 31%.
With `O=C(Nc1ccccc1)Nc1cc(C(=O)N2CCNCC2)ccc1N1CCN(C(c2ccccc2)c2ccccc2)CC1` [Cpd 40, N-[2-[4-(diphenylmethyl)-1-piperazinyl]-5-(1-piperazinylcarbonyl)phenyl]-N′-phenylurea], the IC50 at human PLC-β2 is 1.6 µM. Moreover, the “% Inhibition” value was 44% in the assay with PMA-induced ear edema (5 mpk i.v.), 81% with PMA-induced ear edema (30 mpk i.p.) and 9% with PMA-induced ear edema (30 mpk p.o.).
For `O=C(Nc1ccccc1)Nc1cc(C(=O)N2CCNCC2)ccc1N1CCN(C(c2ccccc2)c2ccc(Cl)cc2)CC1` (stereo not shown) [Cpd 60, N-[2-[4-[(4-chlorophenyl)phenylmethyl]-1-piperazinyl]-5-(1-piperazinylcarbonyl)phenyl]-N′-phenyl-urea], at human PLC-β2, the IC50 is 0.95 µM.
For `O=C(/C=C/c1ccccc1)NC(=O)Nc1cc(C(=O)N2CCNCC2)ccc1N1CCN(C(c2ccccc2)c2ccccc2)CC1` [Cpd 61, N-[2-[4-(diphenylmethyl)-1-piperazinyl]-5-(1-piperazinylcarbonyl)phenyl]-N′-[(2E)-1-oxo-3-phenyl-2-propenyl]-urea], on human PLC-β2, the IC50 came out at 4.3 µM.
On to `CC(C)(C)NC(=O)Nc1cc(C(=O)N2CCNCC2)ccc1N1CCN(C(c2ccccc2)c2ccccc2)CC1` [Cpd 62, N-(1,1-dimethylethyl)-N′-[2-[4-(diphenylmethyl)-1-piperazinyl]-5-(1-piperazinylcarbonyl)phenyl]-urea], for which, on human PLC-β2, the IC50 is over 25 µM.
Still for that read-out and setting: the value for `O=C(Nc1cc(C(=O)N2CCNCC2)ccc1N1CCN(C(c2ccccc2)c2ccccc2)CC1)NC1CCCC1` [Cpd 63, N-cyclopentyl-N′-[2-[4-(diphenylmethyl)-1-piperazinyl]-5-(1-piperazinylcarbonyl)phenyl]-urea] was 13.7 µM; that for `C[C@H](NC(=O)Nc1cc(C(=O)N2CCNCC2)ccc1N1CCN(C(c2ccccc2)c2ccccc2)CC1)c1ccccc1` [Cpd 64, N-[2-[4-(diphenylmethyl)-1-piperazinyl]-5-(1-piperazinylcarbonyl)phenyl]-N′-[(1S)-1-phenylethyl]-urea] was over 25 µM; that for `O=C(c1ccc(N2CCN(C(c3ccccc3)c3ccccc3)CC2)c(NC(=S)NCc2ccccc2)c1)N1CCNCC1` [Cpd 65, N-[2-[4-(diphenylmethyl)-1-piperazinyl]-5-(1-piperazinylcarbonyl)phenyl]-N′-(phenylmethyl)thiourea] was 6.2 µM.
Regarding `CC(C)NC(=O)Nc1cc(C(=O)N2CCNCC2)ccc1N1CCN(C(c2ccccc2)c2ccccc2)CC1` [Cpd 66, N-[2-[4-(diphenylmethyl)-1-piperazinyl]-5-(1-piperazinylcarbonyl)phenyl]-N′-(1-methylethyl)urea], at human PLC-β2, the 50% inhibitory concentration (IC50) is over 25 µM.
For the molecule `O=C(NC(=S)Nc1cc(C(=O)N2CCNCC2)ccc1N1CCN(C(c2ccccc2)c2ccccc2)CC1)c1ccc(Cl)cc1` [Cpd 67, N-(4-chlorobenzoyl)-N′-[2-[4-(diphenylmethyl)-1-piperazinyl]-5-(1-piperazinylcarbonyl)phenyl]-thiourea], the IC50 on human PLC-β2 stood at 3.4 µM.
The same measure, in the same setting: the value for `NC(=O)c1ccc(N2CCN(C(c3ccncc3)c3ccc(F)cc3)CC2)c(NC(=O)Nc2ccccc2)c1` (stereo not shown) [Cpd 77, 4-[4-[(4-fluorophenyl)-4-pyridinylmethyl]-1-piperazinyl]-3-[[(phenylamino)carbonyl]amino]-benzamide] was about 10 µM; that for `NC(=O)c1ccc(N2CCN(C(c3ccncc3)c3ccc(F)cc3)CC2)c(NC(=O)NC2CCCCC2)c1` (stereo not shown) [Cpd 78] was over 10 µM.
On to `NC(=O)c1ccc(N2CCCN(C(c3ccncc3)c3ccc(F)cc3)CC2)c(NC(=O)Nc2ccccc2)c1` (stereo not shown) [Cpd 79, 4-[4-[(4-fluorophenyl)-4-pyridinylmethyl]hexahydro-1H-1,4-diazepin-1-yl]-3-[[(phenylamino)carbonyl]amino]-benzamide], for which the half-maximal inhibitory concentration (IC50) on human PLC-β2 is over 10 µM.
`NC(=O)c1ccc(N2CCCN(C(c3ccncc3)c3ccc(F)cc3)CC2)c(NC(=O)NC2CCCCC2)c1` (stereo not shown) [Cpd 80, 3-[[(cyclohexylamino)carbonyl]amino]-4-[4-[(4-fluorophenyl)-4-pyridinylmethyl]hexahydro-1H-1,4-diazepin-1-yl]-benzamide]: the IC50 at human PLC-β2 is over 10 µM.
The same measure, in the same setting: the same measure for `NC(=O)c1ccc(N2CCCN(C(c3ccc(F)cc3)c3ccc(F)cc3)CC2)c(NC(=O)Nc2ccccc2)c1` [Cpd 81, 4-[4-[bis(4-fluorophenyl)methyl]hexahydro-1H-1,4-diazepin-1-yl]-3-[[(phenylamino)carbonyl]amino]-benzamide]: about 10 µM.
For `NC(=O)c1ccc(N2CCCN(C(c3ccc(F)cc3)c3ccc(F)cc3)CC2)c(NC(=O)NC2CCCCC2)c1` [Cpd 82, 4-[4-[bis(4-fluorophenyl)methyl]hexahydro-1H-1,4-diazepin-1-yl]-3-[[(cyclohexylamino)carbonyl]amino]-benzamide], at human PLC-β2, the IC50 was about 10 µM.
The same measure, in the same setting: the same measure for `O=C(Nc1ccccc1)Nc1ccc(C(=O)N2CCNCC2)cc1N1CCCN(C(c2ccc(F)cc2)c2ccc(F)cc2)CC1` [Cpd 89, N-[2-[4-[bis(4-fluorophenyl)methyl]hexahydro-1H-1,4-diazepin-1-yl]-4-(1-piperazinylcarbonyl)phenyl]-N′-phenyl-urea]: 0.81 µM; for `O=C(Nc1ccccc1)Nc1ccc(C(=O)N2CCNCC2)cc1N1CCN(C(c2ccc(F)cc2)c2ccc(F)cc2)CC1` [Cpd 90, N-[2-[4-[bis(4-fluorophenyl)methyl]-1-piperazinyl]-4-(1-piperazinylcarbonyl)phenyl]-N′-phenyl-urea]: 0.98 µM.
For the molecule `O=C(Nc1ccccc1)Nc1ccc(C(=O)N2CCNCC2)cc1N1CCN(C(c2ccccc2)c2ccccc2)CC1` [Cpd 91, N-[2-[4-(diphenylmethyl)-1-piperazinyl]-4-(1-piperazinylcarbonyl)phenyl]-N′-phenyl-urea], at human PLC-β2, the IC50 is 1.3 µM.
`O=C(Nc1ccc(C(=O)N2CCNCC2)cc1N1CCN(C(c2ccccc2)c2ccccc2)CC1)NC1CCCCC1` [Cpd 92, N-cyclohexyl-N′-[2-[4-(diphenylmethyl)-1-piperazinyl]-4-(1-piperazinylcarbonyl)phenyl]-urea]: the IC50 at human PLC-β2 turned out to be 1.6 µM.
The same measure, in the same setting: the same measure for `NC(=O)c1ccc(NC(=O)Nc2ccccc2)c(N2CCN(C(c3ccccc3)c3ccccc3)CC2)c1` [Cpd 93, 3-[4-(diphenylmethyl)-1-piperazinyl]-4-[[(phenylamino)carbonyl]amino]-benzamide]: 1.8 µM.
